Assay results taken from patent US4605642A, “CRF antagonists” (The Salk Institute for Biological Studies, priority 1984, dated 1986).
Square brackets hold non-standard residues; d marks the D form. Peptide text beside a SMILES is read from it. Nle = CCCC[C@H](N)C(=O)O

Experiments:
[1] = system: secretion of ACTH by cultured rat pituitary cells; test: Blocking of oCRF-stimulated ACTH secretion by cultured rat pituitary cells; type: cell-based; settings: general procedure set forth in Example III
Procedure: (§1) The effectiveness of synthetic CRF antagonists to block the secretion of ACTH and β-endorphin by cultured rat pituitary cells is measured using the procedure as generally set forth in Vale et al., Endocrinology, 91, 562 (1972). In vivo testing is carried out using the general procedure set forth in C. Rivier et al., Science, 218, 377 (1982).

[2] = system: secretion of β-endorphin by cultured rat pituitary cells; test: Blocking of β-endorphin (β-END-LI) secretion by cultured rat pituitary cells; type: cell-based; settings: general procedure set forth in Example III
Procedure: as §1

Compound | inhibition of the secretion of ACTH (in words) [1] | inhibition of the secretion of β-END-LI (in words) [2]
CCCC[C@H](NC(=O)[C@@H](NC(=O)[C@H](CCC(=O)O)NC(=O)[C@H](CC(C)C)NC(=O)[C@H](CC(C)C)NC(=O)[C@H](CCCCN)NC(=O)[C@H](CCCNC(=N)N)NC(=O)[C@H](CC(N)=O)NC(=O)[C@H](CO)NC(=O)[C@H](Cc1c[nH]cn1)NC(=O)[C@H](C)NC(=O)[C@H](CCC(N)=O)NC(=O)[C@H](CCC(N)=O)NC(=O)[C@H](C)NC(=O)[C@H](CC(C)C)NC(=O)[C@H](CCC(N)=O)NC(=O)[C@H](CCC(=O)O)NC(=O)[C@H](C)NC(=O)[C@H](CCCNC(=N)N)NC(=O)[C@H](C)NC(=O)[C@H](C)NC(=O)[C@H](CCC(=O)O)NC(=O)[C@H](CC(C)C)NC(=O)[C@@H](NC(=O)[C@H](CCC(=O)O)NC(=O)[C@H](CCCNC(=N)N)NC(=O)[C@H](CC(C)C)NC(=O)[C@H](CC(C)C)NC(=O)[C@H](Cc1c[nH]cn1)NC(=O)[C@H](Cc1ccccc1)NC(=O)[C@@H](NC(=O)[C@H](CC(C)C)NC(=O)[C@@H](N)CC(=O)O)[C@@H](C)O)C(C)C)[C@@H](C)CC)C(N)=O [[Ala^21, Leu^38, Nle^41]-hCRF(9-41)] (H-DLTFHLLREVLEAARAEQLAQQAHSNRKLLEI[Nle]-NH2) | inhibits the secretion | inhibits the secretion
CCCC[C@H](N)C(=O)N[C@@H](CC(=O)O)C(=O)N[C@@H](CC(C)C)C(=O)N[C@@H](CO)C(=O)N[C@@H](Cc1ccccc1)C(=O)N[C@@H](Cc1c[nH]cn1)C(=O)N[C@@H](CC(C)C)C(=O)N[C@@H](CC(C)C)C(=O)N[C@@H](CCCNC(=N)N)C(=O)N[C@@H](CCC(=O)O)C(=O)N[C@H](C(=O)N[C@@H](CC(C)C)C(=O)N[C@@H](CCC(=O)O)C(=O)N[C@@H](CCSC)C(=O)N[C@@H](C)C(=O)N[C@@H](CCCNC(=N)N)C(=O)N[C@@H](C)C(=O)N[C@@H](CCC(=O)O)C(=O)N[C@@H](CCC(N)=O)C(=O)N[C@@H](CC(C)C)C(=O)N[C@@H](C)C(=O)N[C@@H](CCC(N)=O)C(=O)N[C@@H](CCC(N)=O)C(=O)N[C@@H](C)C(=O)N[C@@H](Cc1c[nH]cn1)C(=O)N[C@@H](CC(C)C)C(=O)N[C@@H](CC(N)=O)C(=O)N[C@@H](CCCNC(=N)N)C(=O)N[C@@H](CCCCN)C(=O)N[C@@H](CC(C)C)C(=O)N[C@@H](CCSC)C(=O)N[C@@H](CCC(=O)O)C(=O)N[C@H](C(=O)N[C@H](C(N)=O)[C@@H](C)CC)[C@@H](C)CC)C(C)C [[Nle^8, Ser^11, Leu^33]-hCRF(8-41)] (H-[Nle]DLSFHLLREVLEMARAEQLAQQAHLNRKLMEII-NH2) | inhibits the secretion | inhibits the secretion
CCCC[C@H](NC(=O)[C@@H](NC(=O)[C@@H](N)CC(C)C)[C@@H](C)O)C(=O)N[C@@H](Cc1c[nH]cn1)C(=O)N[C@@H](CC(C)C)C(=O)N[C@@H](CC(C)C)C(=O)N[C@@H](CCCNC(=N)N)C(=O)N[C@@H](CCC(=O)O)C(=O)N[C@H](C(=O)N[C@@H](CC(C)C)C(=O)N[C@@H](CCC(=O)O)C(=O)N[C@@H](CCSC)C(=O)N[C@@H](C)C(=O)N[C@@H](CCCNC(=N)N)C(=O)N[C@@H](C)C(=O)N[C@@H](CCC(=O)O)C(=O)N[C@@H](CCC(N)=O)C(=O)N[C@@H](CC(C)C)C(=O)N[C@@H](C)C(=O)N[C@@H](CCC(N)=O)C(=O)N[C@@H](CCC(N)=O)C(=O)N[C@@H](C)C(=O)N[C@@H](Cc1c[nH]cn1)C(=O)N[C@@H](CO)C(=O)N[C@@H](CC(N)=O)C(=O)N[C@@H](CCCNC(=N)N)C(=O)N[C@@H](CCCCN)C(=O)N[C@@H](CC(C)C)C(=O)N[C@@H](CCSC)C(=O)N[C@@H](CCC(=O)O)C(=O)N[C@H](C(=O)N[C@H](C(N)=O)[C@@H](C)CC)[C@@H](C)CC)C(C)C [[Nle^12]-hCRF(10-41)] (H-LT[Nle]HLLREVLEMARAEQLAQQAHSNRKLMEII-NH2) | inhibits the secretion | inhibits the secretion
CCCC[C@H](NC(=O)[C@H](CCC(=O)O)NC(=O)[C@H](CC(C)C)NC(=O)[C@H](CCCC)NC(=O)[C@H](CCC(=O)O)NC(=O)[C@H](CCCNC(=N)N)NC(=O)[C@H](CC(C)C)NC(=O)[C@H](CC(C)C)NC(=O)[C@H](Cc1c[nH]cn1)NC(=O)[C@H](Cc1ccccc1)NC(=O)[C@@H](NC(=O)[C@H](CC(C)C)NC(=O)[C@H](CC(=O)O)NC(=O)[C@@H](N)CC(C)C)[C@@H](C)O)C(=O)N[C@@H](C)C(=O)N[C@@H](CCCCN)C(=O)N[C@@H](C)C(=O)N[C@@H](CCC(=O)O)C(=O)N[C@@H](CCC(N)=O)C(=O)N[C@@H](CCC(=O)O)C(=O)N[C@@H](C)C(=O)N[C@@H](CCC(=O)O)C(=O)N[C@@H](CCC(N)=O)C(=O)N[C@@H](C)C(=O)N[C@@H](C)C(=O)N[C@@H](CC(C)C)C(=O)N[C@@H](CC(N)=O)C(=O)N[C@@H](CCCNC(=N)N)C(=O)N[C@@H](CC(C)C)C(=O)N[C@@H](CC(C)C)C(=O)N[C@@H](CC(C)C)C(=O)N[C@@H](CCC(=O)O)C(=O)N[C@@H](CCC(=O)O)C(=O)N[C@@H](C)C(N)=O [[Nle^18,21]-AHC(8-41)] (H-LDLTFHLLRE[Nle]LE[Nle]AKAEQEAEQAALNRLLLEEA-NH2) | inhibits the secretion | inhibits the secretion
CCCC[C@H](NC(=O)[C@H](CCC(=O)O)NC(=O)[C@H](CC(C)C)NC(=O)[C@H](CCCC)NC(=O)[C@H](CCC(=O)O)NC(=O)[C@H](CCCNC(=N)N)NC(=O)[C@H](CC(C)C)NC(=O)[C@H](CC(C)C)NC(=O)[C@H](Cc1c[nH]cn1)NC(=O)[C@H](Cc1ccccc1)NC(=O)[C@@H](NC(=O)[C@H](CC(C)C)NC(=O)[C@@H](N)CC(=O)O)[C@@H](C)O)C(=O)N[C@@H](C)C(=O)N[C@@H](CCCCN)C(=O)N[C@@H](C)C(=O)N[C@@H](CCC(=O)O)C(=O)N[C@@H](CCC(N)=O)C(=O)N[C@@H](CCC(=O)O)C(=O)N[C@@H](C)C(=O)N[C@@H](CCC(=O)O)C(=O)N[C@@H](CCC(N)=O)C(=O)N[C@@H](C)C(=O)N[C@@H](C)C(=O)N[C@@H](CC(C)C)C(=O)N[C@@H](CC(N)=O)C(=O)N[C@@H](CCCNC(=N)N)C(=O)N[C@@H](CC(C)C)C(=O)N[C@@H](CC(C)C)C(=O)N[C@@H](CC(C)C)C(=O)N[C@@H](CCC(=O)O)C(=O)N[C@@H](CCC(=O)O)C(=O)N[C@@H](C)C(N)=O [[Nle^18,21]-AHC(9-41)] (H-DLTFHLLRE[Nle]LE[Nle]AKAEQEAEQAALNRLLLEEA-NH2) | inhibits the secretion | inhibits the secretion
CCCC[C@H](NC(=O)[C@H](CCC(=O)O)NC(=O)[C@H](CC(C)C)NC(=O)[C@H](CCCC)NC(=O)[C@H](CCC(=O)O)NC(=O)[C@H](CCCNC(=N)N)NC(=O)[C@H](CC(C)C)NC(=O)[C@H](CC(C)C)NC(=O)[C@H](Cc1c[nH]cn1)NC(=O)[C@H](Cc1ccccc1)NC(=O)[C@@H](NC(=O)[C@@H](N)CC(C)C)[C@@H](C)O)C(=O)N[C@@H](C)C(=O)N[C@@H](CCCCN)C(=O)N[C@@H](C)C(=O)N[C@@H](CCC(=O)O)C(=O)N[C@@H](CCC(N)=O)C(=O)N[C@@H](CCC(=O)O)C(=O)N[C@@H](C)C(=O)N[C@@H](CCC(=O)O)C(=O)N[C@@H](CCC(N)=O)C(=O)N[C@@H](C)C(=O)N[C@@H](C)C(=O)N[C@@H](CC(C)C)C(=O)N[C@@H](CC(N)=O)C(=O)N[C@@H](CCCNC(=N)N)C(=O)N[C@@H](CC(C)C)C(=O)N[C@@H](CC(C)C)C(=O)N[C@@H](CC(C)C)C(=O)N[C@@H](CCC(=O)O)C(=O)N[C@@H](CCC(=O)O)C(=O)N[C@@H](C)C(N)=O [[Nle^18,21]-AHC(10-41)] (H-LTFHLLRE[Nle]LE[Nle]AKAEQEAEQAALNRLLLEEA-NH2) | inhibits the secretion | inhibits the secretion
CCCC[C@H](NC(=O)[C@H](CCC(=O)O)NC(=O)[C@H](CC(C)C)NC(=O)[C@@H](NC(=O)[C@H](CCC(=O)O)NC(=O)[C@H](CCCNC(=N)N)NC(=O)[C@H](CC(C)C)NC(=O)[C@H](CC(C)C)NC(=O)[C@H](Cc1c[nH]cn1)NC(=O)[C@H](Cc1ccccc1)NC(=O)[C@@H](NC(=O)[C@H](CC(C)C)NC(=O)[C@@H](N)CC(=O)O)[C@@H](C)O)C(C)C)C(=O)N[C@@H](C)C(=O)N[C@@H](CCCNC(=N)N)C(=O)N[C@@H](C)C(=O)N[C@@H](CCC(=O)O)C(=O)N[C@@H](CCC(N)=O)C(=O)N[C@@H](CC(C)C)C(=O)N[C@@H](C)C(=O)N[C@@H](CCC(N)=O)C(=O)N[C@@H](CCC(N)=O)C(=O)N[C@@H](C)C(=O)N[C@@H](Cc1ccc(O)cc1)C(=O)N[C@@H](CO)C(=O)N[C@@H](CC(N)=O)C(=O)N[C@@H](CCCNC(=N)N)C(=O)N[C@@H](CCCCN)C(=O)N[C@@H](CC(C)C)C(=O)N[C@@H](CCSC)C(=O)N[C@@H](CCC(=O)O)C(=O)N[C@H](C(=O)N[C@H](C(N)=O)[C@@H](C)CC)[C@@H](C)CC [[Nle^21, Tyr^32]-hCRF(9-41)] (H-DLTFHLLREVLE[Nle]ARAEQLAQQAYSNRKLMEII-NH2) | inhibits the secretion | inhibits the secretion
Ac-DLTFHLLREVLEMARAEQLAQQAHSNRKLMDII-NH2 [[Acetyl-Asp^9, Asp^39]-hCRF(9-41)] | inhibits the secretion | inhibits the secretion
H-Asp-CML-Thr-Leu-Glu-CML-CML-Arg-Glu-Met-CML-Glu-Met-CMA-Lys-Ala-Glu-Gln- CML-Ala-Glu-Gln-Ala-CMA-CML-Asn-Arg-Leu-CML-Leu-Glu-Glu-CMA-NH2 | inhibits the secretion | inhibits the secretion
H-DLSLELLRKMIEIAKQEKEKQQAANNRLLMDTI-NH2 [[Ala^21, Met^37]-sauvagine(8-40)] | inhibits the secretion | inhibits the secretion
H-DLSLELLRKMIEIEKQEKLKQQAANNRLLMDTI-NH2 [[Leu^26, Met^37]-sauvagine(8-40)] | inhibits the secretion | inhibits the secretion
